From ChEMBL document CHEMBL1121966, “(2R*,3S*)-1-[125I]Iodo-2,3-bis(4-hydroxyphenyl)pentane ([125I]iodonorhexestrol) and (2R*,3S*)-1-[77Br]Bromo-2,3-bis(4-hydroxyphenyl)pentane ([77Br]bromonorhexestrol), two gamma-emitting estrogens that show receptor-mediated uptake by target tissues in vivo” (1982) come the findings set out here.

The assay is described as follows: Solvolytic stability of compound was measured relative to p-hydroxyphenethyl bromide. The format is functional, Rattus norvegicus.

`Oc1ccc(CCBr)cc1` registered a 1/krel of 1.
